Reference: US9951068B2 (Proximagen Limited, priority 2013, dated 2018)

What was measured:
[1] = target: purified recombinantly expressed human SSAO (Homo sapiens (Human), UniProt Q16853); assay: SSAO enzyme inhibition assay (HRP-coupled hydrogen peroxide detection or 14C-benzaldehyde detection, benzylamine substrate); assay type: biochemical; details: SSAO inhibitory activity, human recombinant SSAO, RT
Description: All primary assays were performed at RT. with purified recombinantly expressed human SSAO. Enzyme was prepared essentially as described in Öhman et al. (Protein Expression and Purification 46 (2006) 321-331). In addition, secondary- and selectivity assays were performed using SSAO prepared from various tissues or purified rat recombinant SSAO. The enzyme activity was assayed with benzylamine as substrate by measuring either benzaldehyde production, using ^14C-labeled substrate, or by utilizing the production of hydrogen peroxide in a horseradish peroxidase (HRP) coupled reaction. Briefly, test compounds were dissolved in dimethyl sulfoxide (DMSO) to a concentration of 10 mM. Dose-response measurements were assayed by either creating 1:10 serial dilutions in DMSO to produce a 7 point curve or by making 1:3 serial dilutions in DMSO to produce 11 point curves.
In a horseradish peroxidase (HRP) coupled reaction, hydrogen peroxide oxidation of 10-acetyl-3,7-dihydroxyphenoxazine produced resorufin, which is a highly fluorescent compound (Zhout and Panchuk-Voloshina. Analytical Biochemistry 253 (1997) 169-174; Amplex® Red Hydrogen Peroxide/peroxidase Assay kit, Invitrogen A22188). Enzyme and compounds in 50 mM sodium phosphate, pH 7.4 were set to pre-incubate in flat-bottomed microtiter plates for approximately 15 min before initiating the reaction by addition of a mixture of HRP, benzylamine and Amplex reagent. Benzylamine concentration was fixed at a concentration corresponding to the Michaelis constant, determined using standard procedures. Fluorescence intensity was then measured at several time points during 1-2 h, exciting at 544 nm and reading the emission at 590 nm. For the human SSAO assay final concentrations of the reagents in the assay wells were: SSAO enzyme 1 ug/ml, benzylamine 100 uM, Amplex reagent 20 uM, HRP 0.1 U/mL and varying concentrations of test compound. The inhibition was measured as % decrease of the signal compared to a control without inhibitor (only diluted DMSO). The background signal from a sample containing no SSAO enzyme was subtracted from all data points. Data was fitted to a four parameter logistic model and IC50 values were calculated using the GraphPad Prism 4 or XLfit 4 programs.
SSAO activity was assayed using 14C-labeled benzylamine and analysed by measuring radioactive benzaldehyde. In a white 96-well optiplate (Packard), 20 uL of diluted test compound was pre-incubated at room temperature with 20 uL SSAO enzyme for approximately 15 min with continuous agitation. All dilutions were made with PBS. The reaction was initiated by adding 20 uL of the benzylamine substrate solution containing [7-14C] Benzylamine hydrochloride (CFA589, GE Healthcare). The plate was incubated for 1 h as above after which the reaction was stopped by acidification (10 uL 1M aq HCl). Then 90 uL Micro Scint-E solution (Perkin-Elmer) was added to each well and the plate was continuously mixed for 15 min. Phase separation occurred instantly and activity was read in a Topcount scintillation counter (Perkin-Elmer). In the final reaction well, the human recombinant SSAO concentration was 10 ug/ml. In order to optimize sensitivity, the substrate concentration was decreased as compared to the HRP coupled assay in order to get a higher fraction of radioactive product. In the human SSAO assay, benzylamine concentration was 40 uM (0.2 uCi/mL). Data was analysed as above.

[2] = target: human ether a go-go related gene (hERG) K+ channel (Homo sapiens (Human), UniProt Q12809); assay: hERG assay, IonWorks patch clamp electrophysiology; assay type: cell-based; details: Chinese Hamster Lung cell line stably expressing hERG; max assay concentration 11 uM
Chain of human ether a go-go related gene (hERG) K+ channel (Q12809 whole entry): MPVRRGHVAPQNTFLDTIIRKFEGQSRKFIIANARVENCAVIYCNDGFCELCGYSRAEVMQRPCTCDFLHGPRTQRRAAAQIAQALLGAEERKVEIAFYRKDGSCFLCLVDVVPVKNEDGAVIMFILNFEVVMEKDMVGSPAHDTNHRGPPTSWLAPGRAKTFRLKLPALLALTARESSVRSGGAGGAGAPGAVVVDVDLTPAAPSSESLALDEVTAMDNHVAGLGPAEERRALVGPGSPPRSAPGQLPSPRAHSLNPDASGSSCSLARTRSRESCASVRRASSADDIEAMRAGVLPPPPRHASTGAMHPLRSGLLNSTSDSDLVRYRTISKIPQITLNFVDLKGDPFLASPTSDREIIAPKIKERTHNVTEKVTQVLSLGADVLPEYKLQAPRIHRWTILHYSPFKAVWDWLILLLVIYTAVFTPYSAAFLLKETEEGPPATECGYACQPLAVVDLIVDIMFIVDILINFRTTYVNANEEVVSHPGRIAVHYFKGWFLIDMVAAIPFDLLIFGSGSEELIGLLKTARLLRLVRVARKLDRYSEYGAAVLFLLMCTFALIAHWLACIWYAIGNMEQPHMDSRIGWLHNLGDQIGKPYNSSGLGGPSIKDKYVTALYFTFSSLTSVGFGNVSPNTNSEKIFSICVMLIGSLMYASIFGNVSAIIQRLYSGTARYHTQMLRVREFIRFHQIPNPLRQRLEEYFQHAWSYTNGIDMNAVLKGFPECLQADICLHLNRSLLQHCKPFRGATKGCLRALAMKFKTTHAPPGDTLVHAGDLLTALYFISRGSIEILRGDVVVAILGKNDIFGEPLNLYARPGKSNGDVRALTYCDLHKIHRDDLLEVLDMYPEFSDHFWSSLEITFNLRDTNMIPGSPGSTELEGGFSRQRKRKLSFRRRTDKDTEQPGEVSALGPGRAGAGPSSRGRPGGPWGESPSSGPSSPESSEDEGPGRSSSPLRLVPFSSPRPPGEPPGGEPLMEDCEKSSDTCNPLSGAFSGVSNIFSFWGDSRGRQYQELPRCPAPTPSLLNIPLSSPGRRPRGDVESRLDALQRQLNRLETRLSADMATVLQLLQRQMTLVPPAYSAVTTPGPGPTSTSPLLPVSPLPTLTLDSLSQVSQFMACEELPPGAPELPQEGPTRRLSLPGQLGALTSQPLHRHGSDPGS
Description: Compounds of the invention were tested for inhibition of the human ether a go-go related gene (hERG) K^+ channel using IonWorks patch clamp electrophysiology. 8 Point concentration-response curves were generated on two occasions using 3-fold serial dilutions from the maximum assay concentration (11 uM). Electrophysiological recordings were made from a Chinese Hamster Lung cell line stably expressing the full length hERG channel. Single cell ion currents were measured in the perforated patch clamp configuration (100 ug/mL amphoterocin) at room temperature using an IonWorks Quattro instrument. The internal solution contained 140 mM KCl, 1 mM MgCl2, 1 mM EGTA and 20 mM HEPES and was buffered to pH 7.3. The external solution contained 138 mM NaCl, 2.7 mM KCl, 0.9 mM CaCl2, 0.5 mM MgCl2, 8 mM Na2HPO4 and 1.5 mM KH2PO4, and was buffered to pH 7.3. […] This sequence was repeated 5 times at a frequency of 0.25 Hz. Currents were measured from the tail step at the 5th pulse, and referenced to the holding current. Compounds were incubated for 6-7 min prior to a second measurement of the hERG signal using an identical pulse train. […] A control compound (quinidine) was used (see Table 20 below).

Chain of purified recombinantly expressed human SSAO (Q16853 29-763): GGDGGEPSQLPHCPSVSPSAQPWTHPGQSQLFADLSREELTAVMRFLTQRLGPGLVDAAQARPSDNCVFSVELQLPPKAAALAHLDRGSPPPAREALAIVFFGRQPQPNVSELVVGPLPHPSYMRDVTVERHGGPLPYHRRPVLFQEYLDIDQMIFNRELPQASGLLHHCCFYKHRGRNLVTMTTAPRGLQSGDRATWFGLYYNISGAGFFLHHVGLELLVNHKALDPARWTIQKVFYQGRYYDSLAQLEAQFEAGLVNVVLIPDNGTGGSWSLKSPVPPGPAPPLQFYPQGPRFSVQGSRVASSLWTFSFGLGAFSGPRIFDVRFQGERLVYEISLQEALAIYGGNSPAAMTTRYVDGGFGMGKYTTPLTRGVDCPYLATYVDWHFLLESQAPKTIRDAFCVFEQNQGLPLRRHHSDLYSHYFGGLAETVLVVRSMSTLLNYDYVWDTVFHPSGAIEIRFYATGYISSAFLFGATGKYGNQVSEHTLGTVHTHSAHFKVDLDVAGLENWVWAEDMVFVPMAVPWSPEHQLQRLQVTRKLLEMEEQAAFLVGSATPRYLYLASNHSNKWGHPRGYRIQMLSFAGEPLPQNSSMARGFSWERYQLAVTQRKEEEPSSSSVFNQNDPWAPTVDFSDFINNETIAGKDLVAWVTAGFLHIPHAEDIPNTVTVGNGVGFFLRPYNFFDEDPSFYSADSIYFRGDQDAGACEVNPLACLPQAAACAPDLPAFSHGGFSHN

Row | IC50 [1] | Compound | IC50 [2]
1 | < 0.05 µM | Clc1ccc(-n2c(-c3cnc(NC4CCOCC4)nc3)nc3ccncc32)cc1 [Example 11, 5-[3-(4-Chlorophenyl)-3H-imidazo[4,5-c]pyridin-2-yl]-N-(oxan-4-yl)pyrimidin-2-amine; bis(trifluoroacetic acid)] | > 10 µM
2 | < 0.05 µM | O=C1CN(c2ncc(-c3nc4ccncc4n3-c3ccc(Cl)cc3)cn2)CCN1 [Example 13, 4-{5-[3-(4-Chlorophenyl)-3H-imidazo[4,5-c]pyridin-2-yl]pyrimidin-2-yl}piperazin-2-one] | > 10 µM
3 | < 0.05 µM | Cc1cc(N2CCOCC2)ncc1-c1nc2ccncc2n1-c1ccc(F)cc1 [Example 21, 4-{5-[3-(4-Fluorophenyl)-3H-imidazo[4,5-c]pyridin-2-yl]-4-methylpyridin-2-yl}morpholine] | > 10 µM
4 | < 0.05 µM | C[C@@H]1CN(c2ncc(-c3nc4ccncc4n3-c3ccc(F)cc3)cn2)C[C@H](C)O1 [Example 23, (2R,6S)-4-{5-[3-(4-Fluorophenyl)-3H-imidazo[4,5-c]pyridin-2-yl]pyrimidin-2-yl}-2,6-dimethylmorpholine] | > 10 µM
5 | < 0.05 µM | CC1(C)CN(c2ncc(-c3nc4ccncc4n3-c3ccc(F)cc3)cn2)CCO1 [Example 24, 4-{5-[3-(4-Fluorophenyl)-3H-imidazo[4,5-c]pyridin-2-yl]pyrimidin-2-yl}-2,2-dimethylmorpholine] | > 10 µM
6 | < 0.05 µM | CN1CCN(Cc2ccc(-c3nc4ccncc4n3-c3ccc(Cl)cc3)cc2)CC1 [Example 46, 1-({4-[3-(4-Chlorophenyl)-3H-imidazo[4,5-c]pyridin-2-yl]phenyl}methyl)-4-methylpiperazine; formic acid] | > 10 µM
7 | < 0.05 µM | Clc1ccc(-n2c(-c3ccc(N4CCNCC4)nc3)nc3ccncc32)cc1 [Example 50, 1-{5-[3-(4-Chlorophenyl)-3H-imidazo[4,5-c]pyridin-2-yl]pyridin-2-yl}piperazine] | > 10 µM
8 | < 0.05 µM | Fc1ccc(-n2c(-c3cnc(N4CCOCC4)nc3)nc3ccncc32)cc1 [Example 52, 4-{5-[3-(4-Fluorophenyl)-3H-imidazo[4,5-c]pyridin-2-yl]pyrimidin-2-yl}morpholine] | > 10 µM
9 |  | Cc1ccc(-n2c(-c3cnc(N4CCOCC4)nc3)nc3ccncc32)cc1 [Example 57, 4-{5-[3-(4-Methylphenyl)-3H-imidazo[4,5-c]pyridin-2-yl]pyrimidin-2-yl}morpholine] | > 10 µM
10 |  | Cc1ccc(-n2c(-c3ccc(N4CCOCC4)nc3)nc3ccncc32)cc1 [Example 63, 4-{5-[3-(4-Methylphenyl)-3H-imidazo[4,5-c]pyridin-2-yl]pyridin-2-yl}morpholine] | > 10 µM
11 |  | Cc1ccc(-n2c(-c3ccc(N4CCOCC4)nc3)nc3ccncc32)cn1 [Example 64, 4-{5-[3-(6-Methylpyridin-3-yl)-3H-imidazo[4,5-c]pyridin-2-yl]pyridin-2-yl}morpholine] | > 10 µM
12 | < 0.05 µM | Fc1ccc(-n2c(-c3cnc(N4CCCC4)nc3)nc3ccncc32)cc1 [Example 69, 5-[3-(4-Fluorophenyl)-3H-imidazo[4,5-c]pyridin-2-yl]-2-(pyrrolidin-1-yl)pyrimidine] | > 10 µM
13 | < 0.05 µM | CC1CN(c2ccc(-c3nc4ccncc4n3-c3ccc(F)cc3)cn2)CCO1 (centres unmarked) [Example 70, 4-{5-[3-(4-Fluorophenyl)-3H-imidazo[4,5-c]pyridin-2-yl]pyridin-2-yl}-2-methylmorpholine] | > 10 µM
14 |  | CN(C)c1ccc(-c2nc3ccncc3n2-c2ccc(F)cc2)cn1 [Example 71, 5-[3-(4-Fluorophenyl)-3H-imidazo[4,5-c]pyridin-2-yl]-N,N-dimethylpyridin-2-amine] | > 10 µM
15 | < 0.05 µM | Clc1ccc(-n2c(-c3cnc(N4CCOCC4)nc3)nc3ccncc32)nc1 [Example 75, 4-{5-[3-(5-Chloropyridin-2-yl)-3H-imidazo[4,5-c]pyridin-2-yl]pyrimidin-2-yl}morpholine; tris(trifluoroacetic acid)] | > 10 µM
16 |  | Fc1cc(Cl)ccc1-n1c(-c2cnc(N3CCOCC3)nc2)nc2ccncc21 [Example 77, 4-{5-[3-(4-Chloro-2-fluorophenyl)-3H-imidazo[4,5-c]pyridin-2-yl]pyrimidin-2-yl}morpholine] | > 10 µM
17 | < 0.05 µM | Fc1ccc(-n2c(-c3cnc(N4CCOCC4)nc3)nc3ccncc32)c(F)c1 [Example 78, 4-{5-[3-(2,4-Difluorophenyl)-3H-imidazo[4,5-c]pyridin-2-yl]pyrimidin-2-yl}morpholine] | > 10 µM
18 |  | Fc1cc(Cl)ccc1-n1c(-c2ccc(N3CCOCC3)nc2)nc2ccncc21 [Example 80, 4-{5-[3-(4-Chloro-2-fluorophenyl)-3H-imidazo[4,5-c]pyridin-2-yl]pyridin-2-yl}morpholine] | > 10 µM
19 | < 0.05 µM | Clc1ccc(-n2c(-c3ccc(N4CCOCC4)nc3)nc3ccncc32)nc1 [Example 81, 4-{5-[3-(5-Chloropyridin-2-yl)-3H-imidazo[4,5-c]pyridin-2-yl]pyridin-2-yl}morpholine] | > 10 µM
20 | < 0.05 µM | Cc1ccc(-n2c(-c3ccc(N4CCOCC4)nc3)nc3ccncc32)nc1 [Example 82, 4-{5-[3-(5-Methylpyridin-2-yl)-3H-imidazo[4,5-c]pyridin-2-yl]pyridin-2-yl}morpholine] | > 10 µM
21 | < 0.05 µM | CC(=O)NC1CCN(c2ccc(-c3nc4ccncc4n3-c3ccc(Cl)cc3)cn2)CC1 [Example 85, N-(1-{5-[3-(4-Chlorophenyl)-3H-imidazo[4,5-c]pyridin-2-yl]pyridin-2-yl}piperidin-4-yl)acetamide] | > 10 µM
22 |  | NC(=O)NC1CCN(c2ccc(-c3nc4ccncc4n3-c3ccc(Cl)cc3)cn2)CC1 [Example 91, (1-{5-[3-(4-Chlorophenyl)-3H-imidazo[4,5-c]pyridin-2-yl]pyridin-2-yl}piperidin-4-yl)urea; bis(trifluoroacetic acid)] | > 10 µM
23 |  | c1ccc(-n2c(-c3cnc(N4CCOCC4)nc3)nc3ccncc32)cc1 [Example 95, 4-(5-{3-Phenyl-3H-imidazo[4,5-c]pyridin-2-yl}pyrimidin-2-yl)morpholine] | > 10 µM
24 |  | Fc1ccc(-n2c(-c3cnc(N4CCOCC4)c(F)c3)nc3ccncc32)cc1 [Example 98, 4-{3-Fluoro-5-[3-(4-fluorophenyl)-3H-imidazo[4,5-c]pyridin-2-yl]pyridin-2-yl}morpholine] | > 10 µM
25 |  | Nc1ccc(-c2nc3ccncc3n2-c2ccc(Cl)cc2)cn1 [Example 110, 5-[3-(4-Chlorophenyl)-3H-imidazo[4,5-c]pyridin-2-yl]pyridin-2-amine] | > 10 µM
26 |  | COCCN(C)c1ncc(-c2nc3ccncc3n2-c2ccc(C)cc2)cn1 [Example 117, N-(2-Methoxyethyl)-N-methyl-5-[3-(4-methylphenyl)-3H-imidazo[4,5-c]pyridin-2-yl]pyrimidin-2-amine] | > 10 µM
